Measurements reported in ChEMBL document CHEMBL2074374, “The nuclear receptor PXR is a lithocholic acid sensor that protects against liver toxicity” (Proc Natl Acad Sci U S A, 2001).

Molecular target: T1, Solute carrier organic anion transporter family member 1A4 (Mus musculus, UniProt Q9EP96)
T1 sequence (Q9EP96 whole entry): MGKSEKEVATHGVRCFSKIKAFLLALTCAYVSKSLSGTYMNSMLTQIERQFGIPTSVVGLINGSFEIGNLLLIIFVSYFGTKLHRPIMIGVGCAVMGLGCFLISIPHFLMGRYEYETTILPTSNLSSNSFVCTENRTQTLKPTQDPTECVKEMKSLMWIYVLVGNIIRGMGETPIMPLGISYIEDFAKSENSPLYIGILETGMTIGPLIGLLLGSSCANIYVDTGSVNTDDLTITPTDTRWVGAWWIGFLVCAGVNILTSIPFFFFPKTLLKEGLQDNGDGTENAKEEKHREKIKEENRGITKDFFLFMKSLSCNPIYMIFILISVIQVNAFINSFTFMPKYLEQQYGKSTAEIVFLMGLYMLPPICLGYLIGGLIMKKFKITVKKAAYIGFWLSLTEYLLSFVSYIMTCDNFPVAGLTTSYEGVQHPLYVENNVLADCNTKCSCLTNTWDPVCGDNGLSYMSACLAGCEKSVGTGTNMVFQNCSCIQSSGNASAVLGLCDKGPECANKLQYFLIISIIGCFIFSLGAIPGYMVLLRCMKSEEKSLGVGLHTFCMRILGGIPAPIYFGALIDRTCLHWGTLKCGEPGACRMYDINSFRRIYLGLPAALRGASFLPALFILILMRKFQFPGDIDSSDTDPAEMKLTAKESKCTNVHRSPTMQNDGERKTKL
Experiment: TP_TRANSPORTER: Northern blot in vivo, liver of PXR+/+ mouse
Assay type: functional, organism-based

SMILES	Activity
C[C@H](CCC(=O)O)[C@H]1CC[C@H]2[C@@H]3CC[C@@H]4C[C@H](O)CC[C@]4(C)[C@H]3CC[C@]12C [LITHOCHOLIC ACID]	inducer [+]
CC(=O)[C@H]1[C@H](C#N)C[C@H]2[C@@H]3CC=C4C[C@@H](O)CC[C@]4(C)[C@H]3CC[C@@]21C [PREGNENOLONE CARBONITRILE]	inducer [+]
